Values quoted from earlier work in US8269040B2, “Derivatives of venlafaxine and methods of preparing and using the same” (Wyeth LLC, priority 1999, dated 2012).

Assays:
norepinephrine uptake = conditions: in vitro; versus parent compound venlafaxine
dopamine uptake = dopamine uptake (Rattus norvegicus, UniProt P23977); conditions: in vitro; versus parent compound venlafaxine
serotonin uptake = conditions: versus the other enantiomer
[1] = system: norepinephrine synaptosomal uptake; conditions: versus the other enantiomer

dopamine uptake, sequence (P23977 whole entry): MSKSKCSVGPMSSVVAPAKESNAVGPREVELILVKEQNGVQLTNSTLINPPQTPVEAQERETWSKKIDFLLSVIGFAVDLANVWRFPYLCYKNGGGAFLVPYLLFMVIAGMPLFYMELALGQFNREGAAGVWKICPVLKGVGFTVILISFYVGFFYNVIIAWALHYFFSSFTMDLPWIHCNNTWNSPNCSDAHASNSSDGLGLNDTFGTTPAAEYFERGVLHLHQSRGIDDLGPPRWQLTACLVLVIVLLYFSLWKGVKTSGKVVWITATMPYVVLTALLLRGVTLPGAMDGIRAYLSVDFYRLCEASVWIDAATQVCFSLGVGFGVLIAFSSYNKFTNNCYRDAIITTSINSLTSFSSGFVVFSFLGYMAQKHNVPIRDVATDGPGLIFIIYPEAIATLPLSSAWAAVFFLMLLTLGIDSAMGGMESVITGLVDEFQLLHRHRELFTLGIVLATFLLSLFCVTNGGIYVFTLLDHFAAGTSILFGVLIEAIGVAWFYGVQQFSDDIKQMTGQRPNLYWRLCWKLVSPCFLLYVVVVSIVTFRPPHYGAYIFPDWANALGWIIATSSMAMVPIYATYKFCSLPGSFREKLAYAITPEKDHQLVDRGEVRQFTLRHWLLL

## CN(C)CC(c1ccc(O)cc1)C1(O)CCCCC1 (racemic) [O-desmethylvenlafaxine, (±)-1-[2-(dimethylamino)-1-(4-phenol)ethyl]cyclohexanol]
Compared with venlafaxine
  half-life relative to that of venlafaxine: approximately 2.5 times
In vivo
  half-life (t1/2): about 10 hours
Norepinephrine uptake
  potency as inhibitor of norepinephrine uptake compared with venlafaxine: more potent inhibitor
Dopamine uptake
  potency as inhibitor of dopamine uptake compared with venlafaxine: more potent inhibitor

## COc1ccc(C(CN(C)C)C2(O)CCCCC2)cc1 (single isomer, unassigned; (+)) [(+) enantiomer]
Serotonin uptake
  selectivity in inhibiting serotonin uptake, comparison of enantiomers: more selective

## COc1ccc(C(CN(C)C)C2(O)CCCCC2)cc1 (single isomer, unassigned; (-)) [(−) enantiomer]
[1]
  potency as inhibitor of norepinephrine synaptosomal uptake, comparison of enantiomers: more potent inhibitor
